Here are results for one compound from ChEMBL document CHEMBL4406791, “Allosteric Modalities for Membrane-Bound Receptors: Insights from Drug Hunting for Brain Diseases” (J Med Chem, 2019).

This test concerns the target Metabotropic glutamate receptor 5 (Homo sapiens) (UniProt P41594). In words: Binding affinity to mGluR5 (unknown origin) assessed as association rate constant.

Sequence of Metabotropic glutamate receptor 5 (Homo sapiens) (P41594 21-1212 limits assumed): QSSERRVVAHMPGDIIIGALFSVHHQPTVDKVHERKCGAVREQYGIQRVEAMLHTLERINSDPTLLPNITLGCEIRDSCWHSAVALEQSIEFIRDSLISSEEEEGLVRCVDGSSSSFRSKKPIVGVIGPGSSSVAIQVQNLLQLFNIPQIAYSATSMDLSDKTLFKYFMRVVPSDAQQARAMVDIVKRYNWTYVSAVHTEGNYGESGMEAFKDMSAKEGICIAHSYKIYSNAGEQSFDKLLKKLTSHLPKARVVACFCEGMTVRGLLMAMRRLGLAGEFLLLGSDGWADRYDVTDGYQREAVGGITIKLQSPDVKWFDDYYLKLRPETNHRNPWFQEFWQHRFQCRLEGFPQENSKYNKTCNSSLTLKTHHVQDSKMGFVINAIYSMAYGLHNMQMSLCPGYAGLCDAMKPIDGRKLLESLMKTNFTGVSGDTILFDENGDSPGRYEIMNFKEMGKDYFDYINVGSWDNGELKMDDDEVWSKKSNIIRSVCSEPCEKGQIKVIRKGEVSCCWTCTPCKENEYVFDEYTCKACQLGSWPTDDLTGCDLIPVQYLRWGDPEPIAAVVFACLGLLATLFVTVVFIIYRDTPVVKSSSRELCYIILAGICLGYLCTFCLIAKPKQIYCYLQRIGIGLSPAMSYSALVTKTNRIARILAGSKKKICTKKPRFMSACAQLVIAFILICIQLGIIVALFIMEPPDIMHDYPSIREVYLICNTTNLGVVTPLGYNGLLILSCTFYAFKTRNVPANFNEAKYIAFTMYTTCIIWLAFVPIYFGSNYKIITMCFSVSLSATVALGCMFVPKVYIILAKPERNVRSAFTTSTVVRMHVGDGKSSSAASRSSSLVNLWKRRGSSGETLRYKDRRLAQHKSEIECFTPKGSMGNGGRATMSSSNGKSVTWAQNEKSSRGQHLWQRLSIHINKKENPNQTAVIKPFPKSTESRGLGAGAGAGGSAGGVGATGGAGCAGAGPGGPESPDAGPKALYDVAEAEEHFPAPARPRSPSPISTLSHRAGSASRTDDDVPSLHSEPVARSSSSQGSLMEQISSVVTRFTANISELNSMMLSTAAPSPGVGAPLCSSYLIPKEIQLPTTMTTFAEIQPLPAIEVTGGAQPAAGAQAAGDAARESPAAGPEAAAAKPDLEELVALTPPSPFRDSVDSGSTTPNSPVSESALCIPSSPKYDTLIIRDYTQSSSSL

As to `O=C(Nc1ccc(-c2ccn3c(CC4CC4)nnc3c2C(F)(F)F)cc1)c1ccc(S(=O)(=O)F)cc1`, the K is 3.2 ×10³ /M/s.
